Measured values: ChEMBL document CHEMBL3616377, “2-(3'-Indolyl)-N-arylthiazole-4-carboxamides: Synthesis and evaluation of antibacterial and anticancer activities” (Bioorg Med Chem Lett, 2015)
Values after ≈ are worked out from the molar mass of the structure shown.

Assays:
[1] = tested on: Staphylococcus aureus; experiment: Antibacterial activity against Staphylococcus aureus MTCC 96 after 18 to 24 hrs by broth microdilution method; assay type: functional
[2] = tested on: Staphylococcus aureus; experiment: Antibacterial activity against Staphylococcus aureus MTCC 96 after 18 to 24 hrs by agar well diffusion method; assay type: functional
[3] = tested on: Bacillus subtilis; experiment: Antibacterial activity against Bacillus subtilis MTCC 121 after 18 to 24 hrs by agar well diffusion method; assay type: functional
[4] = tested on: Bacillus subtilis; experiment: Antibacterial activity against Bacillus subtilis MTCC 121 after 18 to 24 hrs by broth microdilution method; assay type: functional
[5] = tested on: Escherichia coli; experiment: Antibacterial activity against Escherichia coli MTCC 1652 after 18 to 24 hrs by agar well diffusion method; assay type: functional
[6] = tested on: Escherichia coli; experiment: Antibacterial activity against Escherichia coli MTCC 1652 after 18 to 24 hrs by broth microdilution method; assay type: functional
[7] = tested on: Pseudomonas putida; experiment: Antibacterial activity against Pseudomonas putida MTCC 102 after 18 to 24 hrs by agar well diffusion method; assay type: functional
[8] = tested on: Pseudomonas putida; experiment: Antibacterial activity against Pseudomonas putida MTCC 102 after 18 to 24 hrs by broth microdilution method; assay type: functional
[9] = Solubility of the compound in 0.05 to 0.1% DMSO; assay type: physicochemical
[10] = tested on: HeLa; experiment: Cytotoxicity against human HeLa cells after 48 hrs by MTT assay in absence of 10% FBS; assay type: functional, cell-based
[11] = tested on: PC-3; experiment: Cytotoxicity against human PC3 cells after 48 hrs by MTT assay in absence of 10% FBS; assay type: functional, cell-based; conditions: PC-3, 48 h
[12] = tested on: MDA-MB-231; experiment: Cytotoxicity against human MDA-MB-231 cells after 48 hrs by MTT assay in absence of 10% FBS; assay type: functional, cell-based; conditions: MDA-MB-231, 48 h
[13] = tested on: LNCaP; experiment: Cytotoxicity against human LNCAP cells after 48 hrs by MTT assay in absence of 10% FBS; assay type: functional, cell-based
[14] = tested on: HEK-293T; experiment: Cytotoxicity against human HEK293T cells after 48 hrs by MTT assay in presence of 10% FBS; assay type: cell-based
[15] = Cytotoxicity against human castration-resistant C4-2 cells after 48 hrs by MTT assay in presence of 10% FBS; assay type: functional, cell-based; conditions: LNCaP C4-2, 48 h
[16] = tested on: HeLa; experiment: Cytotoxicity against human HeLa cells after 48 hrs by MTT assay in presence of 10% FBS; assay type: functional, cell-based
[17] = tested on: PC-3; experiment: Cytotoxicity against human PC3 cells after 48 hrs by MTT assay in presence of 10% FBS; assay type: functional, cell-based; conditions: PC-3, 48 h
[18] = tested on: MDA-MB-231; experiment: Cytotoxicity against human MDA-MB-231 cells after 48 hrs by MTT assay in presence of 10% FBS; assay type: functional, cell-based; conditions: MDA-MB-231, 48 h
[19] = tested on: LNCaP; experiment: Cytotoxicity against human LNCAP cells after 48 hrs by MTT assay in presence of 10% FBS; assay type: functional, cell-based
[20] = tested on: HEK-293T; experiment: Cytotoxicity against human HEK293T cells after 48 hrs by MTT assay in absence of 10% FBS; assay type: cell-based
[21] = Cytotoxicity against human castration-resistant C4-2 cells after 48 hrs by MTT assay in absence of 10% FBS; assay type: functional, cell-based; conditions: LNCaP C4-2, 48 h

CN(C)c1ccc(NC(=O)c2csc(-c3c[nH]c4ccccc34)n2)cc1
MIC [1]: 100 µg/mL (≈ 276 µM) | inhibition zone (IZ) [2]: 13 mm | inhibition zone (IZ) [3]: 14 mm | MIC [4]: 50 µg/mL (≈ 138 µM) | inhibition zone (IZ) [5]: 12 mm | MIC [6]: 100 µg/mL (≈ 276 µM) | inhibition zone (IZ) [7]: 14 mm | MIC [8]: 50 µg/mL (≈ 138 µM) | solubility [9]: Insoluble

O=C(NCc1ccccc1)c1csc(-c2c[nH]c3ccccc23)n1
IC50 [10]: 9.51 µM | IC50 [11]: > 100 µM | IC50 [12]: > 100 µM | IC50 [13]: > 100 µM | inhibition zone (IZ) [5]: 13 mm | MIC [6]: 100 µg/mL (≈ 300 µM) | inhibition zone (IZ) [7]: 13 mm | MIC [8]: 100 µg/mL (≈ 300 µM) | IC50 [14]: 74.5 µM | IC50 [15]: > 100 µM | IC50 [16]: 41.4 µM | IC50 [17]: > 100 µM | IC50 [18]: > 100 µM | IC50 [19]: > 100 µM | IC50 [20]: > 100 µM | IC50 [21]: > 100 µM

COc1ccc(NC(=O)c2csc(-c3c[nH]c4ccc(F)cc34)n2)cc1
IC50 [10]: 3.41 µM | IC50 [11]: > 100 µM | IC50 [12]: 49.4 µM | IC50 [13]: 66.4 µM | MIC [1]: 100 µg/mL (≈ 272 µM) | inhibition zone (IZ) [2]: 12 mm | inhibition zone (IZ) [3]: 13 mm | MIC [4]: 100 µg/mL (≈ 272 µM) | inhibition zone (IZ) [5]: 14 mm | MIC [6]: 50 µg/mL (≈ 136 µM) | inhibition zone (IZ) [7]: 13 mm | MIC [8]: 100 µg/mL (≈ 272 µM) | IC50 [14]: > 100 µM | IC50 [15]: > 100 µM | IC50 [16]: 33.5 µM | IC50 [17]: > 100 µM | IC50 [18]: > 100 µM | IC50 [19]: 75.4 µM | IC50 [20]: 12.1 µM | IC50 [21]: > 100 µM

O=C(O)c1cn(C2CC2)c2cc(N3CCNCC3)c(F)cc2c1=O [CIPROFLOXACIN]
inhibition zone (IZ) [2]: 23 mm | inhibition zone (IZ) [3]: 24 mm | MIC [4]: 6.25 µg/mL (≈ 18.9 µM) | inhibition zone (IZ) [7]: 21 mm | MIC [8]: 12.5 µg/mL (≈ 37.7 µM)

COc1cc(NC(=O)c2csc(-c3c[nH]c4ccc(Br)cc34)n2)cc(OC)c1OC
IC50 [10]: 55.8 µM | IC50 [11]: > 100 µM | IC50 [12]: > 100 µM | IC50 [13]: > 100 µM | MIC [1]: 50 µg/mL (≈ 102 µM) | inhibition zone (IZ) [2]: 15 mm | inhibition zone (IZ) [3]: 16 mm | MIC [4]: 12.5 µg/mL (≈ 25.6 µM) | inhibition zone (IZ) [5]: 14 mm | MIC [6]: 50 µg/mL (≈ 102 µM) | inhibition zone (IZ) [7]: 16 mm | MIC [8]: 12.5 µg/mL (≈ 25.6 µM) | IC50 [14]: 32.8 µM | IC50 [15]: > 100 µM | IC50 [16]: 93 µM | IC50 [17]: > 100 µM | IC50 [18]: > 100 µM | IC50 [19]: > 100 µM | IC50 [20]: > 100 µM | IC50 [21]: > 100 µM

COc1ccc(NC(=O)c2csc(-c3c[nH]c4ccccc34)n2)cc1
MIC [1]: 100 µg/mL (≈ 286 µM) | inhibition zone (IZ) [2]: 11 mm | inhibition zone (IZ) [3]: 12 mm | MIC [4]: 100 µg/mL (≈ 286 µM) | inhibition zone (IZ) [5]: 14 mm | MIC [6]: 50 µg/mL (≈ 143 µM) | inhibition zone (IZ) [7]: 12 mm | MIC [8]: 100 µg/mL (≈ 286 µM) | solubility [9]: Insoluble

O=C(Nc1ccccc1)c1csc(-c2c[nH]c3ccccc23)n1
IC50 [10]: > 100 µM | IC50 [11]: > 100 µM | IC50 [12]: 79.4 µM | IC50 [13]: > 100 µM | MIC [1]: 50 µg/mL (≈ 157 µM) | inhibition zone (IZ) [2]: 14 mm | inhibition zone (IZ) [5]: 13 mm | MIC [6]: 100 µg/mL (≈ 313 µM) | inhibition zone (IZ) [7]: 13 mm | MIC [8]: 100 µg/mL (≈ 313 µM) | IC50 [14]: > 100 µM | IC50 [15]: > 100 µM | IC50 [16]: > 100 µM | IC50 [17]: > 100 µM | IC50 [18]: > 100 µM | IC50 [19]: > 100 µM | IC50 [20]: 41.1 µM | IC50 [21]: > 100 µM

COc1cc(NC(=O)c2csc(-c3cn(Cc4ccc(Cl)cc4)c4ccccc34)n2)cc(OC)c1OC
IC50 [10]: 91.4 µM | IC50 [11]: > 100 µM | IC50 [12]: > 100 µM | IC50 [13]: 97.7 µM | MIC [1]: 100 µg/mL (≈ 187 µM) | inhibition zone (IZ) [2]: 13 mm | inhibition zone (IZ) [3]: 12 mm | MIC [4]: 100 µg/mL (≈ 187 µM) | inhibition zone (IZ) [5]: 15 mm | MIC [6]: 50 µg/mL (≈ 93.6 µM) | inhibition zone (IZ) [7]: 14 mm | MIC [8]: 100 µg/mL (≈ 187 µM) | IC50 [14]: > 100 µM | IC50 [15]: > 100 µM | IC50 [16]: > 100 µM | IC50 [17]: > 100 µM | IC50 [18]: > 100 µM | IC50 [19]: > 100 µM | IC50 [20]: 58.7 µM | IC50 [21]: > 100 µM

COc1cc(NC(=O)c2csc(-c3c[nH]c4ccc(F)cc34)n2)cc(OC)c1OC
IC50 [10]: > 100 µM | IC50 [11]: 89 µM | IC50 [12]: > 100 µM | IC50 [13]: > 100 µM | MIC [1]: 100 µg/mL (≈ 234 µM) | inhibition zone (IZ) [2]: 12 mm | inhibition zone (IZ) [3]: 10 mm | MIC [4]: 100 µg/mL (≈ 234 µM) | inhibition zone (IZ) [5]: 14 mm | MIC [6]: 50 µg/mL (≈ 117 µM) | inhibition zone (IZ) [7]: 14 mm | MIC [8]: 50 µg/mL (≈ 117 µM) | IC50 [14]: 66 µM | IC50 [15]: > 100 µM | IC50 [16]: 48.9 µM | IC50 [17]: > 100 µM | IC50 [18]: > 100 µM | IC50 [19]: 88.5 µM | IC50 [20]: > 100 µM | IC50 [21]: > 100 µM

Cc1ccc(NC(=O)c2csc(-c3c[nH]c4ccccc34)n2)cc1
IC50 [10]: > 100 µM | IC50 [11]: > 100 µM | IC50 [12]: > 100 µM | IC50 [13]: > 100 µM | inhibition zone (IZ) [5]: 12 mm | MIC [6]: 100 µg/mL (≈ 300 µM) | inhibition zone (IZ) [7]: 12 mm | MIC [8]: 100 µg/mL (≈ 300 µM) | IC50 [14]: > 100 µM | IC50 [15]: > 100 µM | IC50 [16]: > 100 µM | IC50 [17]: > 100 µM | IC50 [18]: > 100 µM | IC50 [19]: > 100 µM | IC50 [20]: > 100 µM | IC50 [21]: > 100 µM

COc1ccc(NC(=O)c2csc(-c3cn(Cc4ccc(Cl)cc4)c4ccccc34)n2)cc1
IC50 [10]: > 100 µM | IC50 [11]: > 100 µM | IC50 [12]: 84.9 µM | IC50 [13]: > 100 µM | MIC [1]: 100 µg/mL (≈ 211 µM) | inhibition zone (IZ) [2]: 14 mm | inhibition zone (IZ) [3]: 15 mm | MIC [4]: 50 µg/mL (≈ 105 µM) | inhibition zone (IZ) [5]: 16 mm | MIC [6]: 12.5 µg/mL (≈ 26.4 µM) | inhibition zone (IZ) [7]: 16 mm | MIC [8]: 12.5 µg/mL (≈ 26.4 µM) | IC50 [14]: > 100 µM | IC50 [15]: > 100 µM | IC50 [16]: 90.9 µM | IC50 [17]: > 100 µM | IC50 [18]: > 100 µM | IC50 [19]: > 100 µM | IC50 [20]: > 100 µM | IC50 [21]: > 100 µM

O=C(Nc1ccccc1)c1csc(-c2cn(Cc3ccc(Cl)cc3)c3ccccc23)n1
IC50 [10]: 24.3 µM | IC50 [11]: 76.4 µM | IC50 [12]: 50.5 µM | IC50 [13]: 64.1 µM | MIC [1]: 100 µg/mL (≈ 225 µM) | inhibition zone (IZ) [2]: 12 mm | inhibition zone (IZ) [3]: 13 mm | MIC [4]: 100 µg/mL (≈ 225 µM) | inhibition zone (IZ) [5]: 15 mm | MIC [6]: 50 µg/mL (≈ 113 µM) | inhibition zone (IZ) [7]: 15 mm | MIC [8]: 50 µg/mL (≈ 113 µM) | IC50 [14]: > 100 µM | IC50 [15]: > 100 µM | IC50 [16]: 32.1 µM | IC50 [17]: > 100 µM | IC50 [18]: > 100 µM | IC50 [19]: 68.9 µM | IC50 [20]: > 100 µM | IC50 [21]: > 100 µM
